Several values for one entry are separate records, joined by “and”; a condition that tells them apart may be missing. Equal entries are not always repeated.
How the values were obtained:
[1] = test system: PBMC (peripheral blood mononuclear cells); experiment: two-way mixed lymphocyte reaction (MLR); assay type: cell-based, human
Text: Various in vitro assays can be used to measure effects of the inventive compounds to module immune activity and have antitumor activity using a variety of cellular types. For example, a mixed lymphocyte reaction (MLR) provides a valuable screening tool to determine biological activity of each inventive compound. In the MLR, PBMCs (peripheral blood mononuclear cells) are obtained by drawing whole blood from healthy volunteers in a heparinized container and diluted with an equal volume of hanks balanced salt solution (HBSS). This mixture is layered on a sucrose density gradient, such as a Ficoll-Hypaque® gradient (specific gravity 1.08), and centrifuged at 1000×g for 25 minutes at room temperature or cooler. PBMC are obtained from a band at a plasma-Ficoll interface, separated and washed at least twice in a saline solution, such as HBSS. Contaminating red cells are lysed, such as by ACK lysis for 10 min at 37° C., and the PBMCs are washed twice in HBSS. The pellet of purified PBMCs is resuspended in complete medium, such as RPMI 1640 plus 20% human inactivated serum. Proliferative response of PBMC to allogeneic stimulation is determined in a two-way MLR performed in a 96-well microliter plate. […] At the conclusion of the incubation tritiated thymidine is added (for example, 1 μCi/well of 40 to 60 Ci/mmole) and proliferation determined by liquid scintillation counting. […]

[2] = test system: endotoxin induced lethality; experiment: endotoxin induced lethality in mice (septic shock model); assay type: in vivo, Balb/c mice; details: for cumulative percent survival: 72 hours post LPS (LPS-only 7%); for survival (Number Surviving/Total): single experiments
Procedure: Animals were treated with 10 μg/gm of LPS (i.v.) Immediately following the LPS (t=0), 2 hrs after the LPS (t=2) or 4 hrs following LPS (t-4) the mice were treated with their first treatment of CT1501R (100 mg/kg, i.p.). The mice were treated with CT1501R three times per day thereafter, and animal survival was monitored.
This example illustrates the effect of CT1501R on survival in mice given a lethal dose of endotoxin. We determined if CT1501R protects against endotoxin induced lethality in a murine model. Septic shock was modeled by endotoxin injection of 6-8 week old female Balb/c mice similar to previously published reports (Ashkenazi et al. Proc. Natl. Acad. Sci. U.S.A. 88: 10535-10539, 1991) under protocols approved by the Animal Use Committee of the Biomembrane Institute, Seattle, Wash. Animals were injected intravaneously (i.v.) with an approximate LD100 dose (10 μg/g) of Salmonella abortus equi-derived endotoxin (Sigma Chemical Co., L-1887) in phosphate buffered saline (PBS). CT1501R at a dose of 100 μg/kg was injected intraperitoneally (IP) 3 times per day ([…]). Control mice were injected at the same times with a similar volume of vehicle control (PBS). Survival was followed for at least 72 hours.
Ten mice were treated each with PB S alone or CT 1501R alone on the same schedule as the experimental mice. […] Endotoxin survival data were summarized from a total of six (6) independent experiments. Summary Table 1 details the results of each of the six experiments. In FIG. 5, each time point represents a minimum of three (3) experiments comprising at least twenty (20) mice per group. A probability analysis of the survival data using a Fisher's Exact One Tailed Test is given as Table 3. Significant protection was conferred if CT1501R was administered immediately after the LPS treatment. The cumulative percent survival at 72 hours post LPS treatment was 60% compared to 7% for the LPS-only treated animals (p=<0.0005; Table 3).

IL-6 = experiment: mouse plasma IL-6 ELISA after endotoxin; assay type: in vivo, mice
Procedure: FIG. 8 illustrates data from mouse plasma IL-6 ELISA measurements. Data are compiled from the average of duplicate ELISA measurements from a single experiment with each point representing pooled plasma from three mice.
(§1) For ELISA measurements of cytokine levels in plasma, blood was collected by retro-orbital or cardiac puncture of anesthetized mice, immediately centrifuged and the EDTA plasma stored at -70° C. Particulate free plasma was thawed on ice and cytokine levels determined utilizing commercial ELISA assays with normal mouse plasma used to generate standard curves. Murine tumor necrosis factor-α and interleukin-1α kits were purchased from Genzyme (Cambridge, Mass.) and Endogen (Boston, Mass.), respectively. Each data point was an average of two ELISA measurements made from EDTA serum pooled from three mice. The data summarized in Table 3 were compiled from two independent experiments; data from Table 4 and 5 were from single experiments of three mice per data point.
In particular, peak levels observed at 6, 12 and 18 hours post endotoxin were decreased 1.2, 4.3 and 3.2-fold, respectively. Finally, IL-6 measurements were made in a similar manner (Table 6, FIG. 8).

TNF-α = experiment: mouse plasma TNF-α ELISA after endotoxin; assay type: in vivo, mice
Procedure: Each point represents the average of two experiments compiled from the average of duplicate ELISA measurements with each experimental point representing pooled plasma from three mice.
as §1
Levels of TNF-α, IL-1α and IL-6 were measured in the plasma of mice as a function of time following treatment with S. abortus endotoxin. […] TNF-α levels peaked within 1 hour of treatment of endotoxin (Table 4 and FIG. 6). Treatment of the mice with CT1501R decreased the levels of TNF-α in the EDTA plasma of endotoxin treated mice at all time points measured. […]

SMILES: C[C@@H](O)CCCCn1c(=O)c2c(ncn2C)n(C)c1=O [CT1501R, (R)-1-(5-hydroxyhexyl)-3,7-dimethylxanthine]
- proliferative response of PBMC to allogeneic stimulation [1]: showed dose-response activity
- cumulative percent survival ([2]; CT1501R four hours after LPS): 37%
- cumulative percent survival ([2]; CT1501R immediately after LPS): 60%
- cumulative percent survival ([2]; CT1501R two hours after LPS): 55%
- survival compared with published results for Genentech's bifunctional TNF receptor ([2]; drug given approximately simultaneously with or two hours following lethal LPS): consistently was better at improving survival than Genentech's TNF receptor
- survival (Number Surviving/Total) ([2]; first CT-1501R dose t = 0 Hr post LPS, 24 Hr post LPS): 4/5 and 5/5 and 9/10
- survival (Number Surviving/Total) ([2]; first CT-1501R dose t = 0 Hr post LPS, 48 Hr post LPS): 4/5 and 5/5 and 7/10
- survival (Number Surviving/Total) ([2]; first CT-1501R dose t = 0 Hr post LPS, 72 Hr post LPS): 4/5 and 5/5 and 3/10
- survival (Number Surviving/Total) ([2]; first CT-1501R dose t = 2 Hr post LPS, 24 Hr post LPS): 4/5 and 5/5 and 5/10
- survival (Number Surviving/Total) ([2]; first CT-1501R dose t = 2 Hr post LPS, 48 Hr post LPS): 3/5 and 5/5 and 3/10
- survival (Number Surviving/Total) ([2]; first CT-1501R dose t = 2 Hr post LPS, 72 Hr post LPS): 3/5 and 5/5 and 3/10
- survival (Number Surviving/Total) ([2]; first CT-1501R dose t = 4 Hr post LPS, 24 Hr post LPS): 5/5 and 7/10 and 3/10
- survival (Number Surviving/Total) ([2]; first CT-1501R dose t = 4 Hr post LPS, 48 Hr post LPS): 3/5 and 5/10 and 4/10 and 3/10
- survival (Number Surviving/Total) ([2]; first CT-1501R dose t = 4 Hr post LPS, 72 Hr post LPS): 3/5 and 5/10 and 2/10 and 3/10
- adverse effects, drug alone without endotoxin ([2]; ten mice, same schedule as the experimental mice): no adverse effects noted
- decrease of peak plasma IL-6 vs endotoxin only (IL-6; 3 hours post endotoxin): 1.7 fold
- decrease of peak plasma IL-6 vs endotoxin only (IL-6; 6 hours post endotoxin): 2.0 fold
- decrease of peak plasma IL-6 vs endotoxin only (IL-6; 12 hours post endotoxin): 4.1 fold
- decrease of peak plasma TNF-α vs endotoxin only (TNF-α; 0.5 hour post endotoxin): 2.5 fold
- decrease of peak plasma TNF-α vs endotoxin only (TNF-α; 1 hour post endotoxin): 2.6 fold

Reference: patent US5621102A, “Process for preparing enantiomerically pure xanthine derivatives” (Cell Therapeutics, Inc., priority 1995, dated 1997)
